Patent US9273058B2 (BRISTOL-MYERS SQUIBB COMPANY, priority 2013, dated 2016)
Where two headings read alike, the source gives them in different places.

Assays:
[1] = target: CK1δ (Homo sapiens, UniProt P48730); experiment: CK1δ kinase assay (Caliper LabChip electrophoretic separation of fluoresceinated peptide substrate and product); format: biochemical; conditions: 200 pM CK1δ, 50 μM ATP, 1.5 μM peptide, 22 hours at room temperature
Method: (§1) CK1ε and CK1δ Kinase Assays
(§2) The kinase assay was performed in V-bottom 384-well plates. […] The reaction was incubated at room temperature for 22 hours and terminated by adding 45 μl of 35 mM EDTA to each sample. The reaction mixture was analyzed on the Caliper LABCHIP®3000 (Caliper, Hopkinton, Mass.) by electrophoretic separation of the unphosphorylated substrate and phosphorylated product. […] Compounds were dissolved at 10 mM in dimethylsulfoxide (DMSO) and evaluated at eleven concentrations. IC50 values were derived by non-linear regression analysis.

[2] = target: CK1ε (Homo sapiens, UniProt P49674); experiment: CK1ε kinase assay (Caliper LabChip electrophoretic separation of fluoresceinated peptide substrate and product); format: biochemical; conditions: 200 pM CK1ε, 50 μM ATP, 1.5 μM peptide, 22 hours at room temperature
Chain of CK1ε (P49674 whole entry): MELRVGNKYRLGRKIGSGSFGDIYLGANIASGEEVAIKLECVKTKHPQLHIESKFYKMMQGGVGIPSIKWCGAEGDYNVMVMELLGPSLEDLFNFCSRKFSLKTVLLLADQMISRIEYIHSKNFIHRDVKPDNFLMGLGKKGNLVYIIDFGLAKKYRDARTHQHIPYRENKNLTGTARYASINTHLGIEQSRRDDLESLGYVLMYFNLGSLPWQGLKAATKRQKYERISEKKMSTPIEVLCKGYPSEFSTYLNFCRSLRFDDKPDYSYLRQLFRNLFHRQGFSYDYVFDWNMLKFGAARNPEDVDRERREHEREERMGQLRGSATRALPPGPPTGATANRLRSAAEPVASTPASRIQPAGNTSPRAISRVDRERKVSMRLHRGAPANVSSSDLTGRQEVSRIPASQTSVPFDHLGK
Method: as §1, §2

Chain of CK1δ (P48730 whole entry): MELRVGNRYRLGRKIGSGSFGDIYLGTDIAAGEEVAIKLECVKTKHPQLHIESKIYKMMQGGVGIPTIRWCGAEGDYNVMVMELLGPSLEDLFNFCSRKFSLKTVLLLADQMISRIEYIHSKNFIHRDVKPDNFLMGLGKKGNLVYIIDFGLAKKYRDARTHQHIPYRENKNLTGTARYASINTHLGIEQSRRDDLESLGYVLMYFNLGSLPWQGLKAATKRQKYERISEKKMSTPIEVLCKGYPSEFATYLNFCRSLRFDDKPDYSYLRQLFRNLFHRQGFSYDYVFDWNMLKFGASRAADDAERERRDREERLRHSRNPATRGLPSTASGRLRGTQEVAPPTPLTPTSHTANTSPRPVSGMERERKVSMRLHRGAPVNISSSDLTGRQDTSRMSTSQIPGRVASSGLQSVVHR

Compound | IC50 ([1]; read-out: CK1δ IC50 range) [nM] | IC50 ([2]; read-out: CK1ε IC50 range) [nM] | IC50 ([1]; read-out: CK1δ) [nM] | IC50 ([2]; read-out: CK1ε) [nM]
NC(=O)c1c(-c2cccc(Cl)c2)nn2c1CN(C(=O)NC1CC3(C1)CC3(F)F)CC2 (single isomer, unassigned) [Compound 322, 2-(3-Chlorophenyl)-N^5-(1,1-difluorospiro[2.3]hexan-5-yl)-6,7-dihydropyrazolo[1,5-a]pyrazine-3,5(4H)-dicarboxamide] | 0.01 to 10 | 0.01 to 10 | – | –
NC(=O)c1c(-c2cccc(Cl)c2)nn2c1CN(C(=O)NC1CC3(C1)CC3(F)F)CC2 (single isomer, unassigned) [Compound 323, 2-(3-Chlorophenyl)-N^5-(1,1-difluorospiro[2.3]hexan-5-yl)-6,7-dihydropyrazolo[1,5-a]pyrazine-3,5(4H)-dicarboxamide] | 0.01 to 10 | 0.01 to 10 | – | –
NC(=O)c1c(-c2ccc(Cl)c(Cl)c2)nn2c1CN(C(=O)NC1CC3(C1)CC3(F)F)CC2 (single isomer, unassigned) [Compound 324, 2-(3,4-Dichlorophenyl)-N^5-(1,1-difluorospiro[2.3]hexan-5-yl)-6,7-dihydropyrazolo[1,5-a]pyrazine-3,5(4H)-dicarboxamide] | 0.01 to 10 | 0.01 to 10 | – | –
NC(=O)c1c(-c2ccc(Cl)c(Cl)c2)nn2c1CN(C(=O)NC1CC3(C1)CC3(F)F)CC2 (single isomer, unassigned) [Compound 325, 2-(3,4-Dichlorophenyl)-N^5-(1,1-difluorospiro[2.3]hexan-5-yl)-6,7-dihydropyrazolo[1,5-a]pyrazine-3,5(4H)-dicarboxamide] | 0.01 to 10 | 0.01 to 10 | – | –
CC1(NC(=O)N2CCn3nc(-c4ccc(F)c(Cl)c4)c(C(N)=O)c3C2)CC2(C1)CC2(F)F (single isomer, unassigned) [Compound 326, 2-(3-Chloro-4-fluorophenyl)-N5-(1,1-difluoro-5-methylspiro[2.3]hexan-5-yl)-6,7-dihydropyrazolo[1,5-a]pyrazine-3,5(4H)-dicarboxamide] | 0.01 to 10 | 0.01 to 10 | – | –
NC(=O)c1c(-c2cccc(F)c2)nn2c1CN(C(=O)Nc1ccnc(Cl)c1)CC2 [Compound 90, N^5-(2-Chloropyridin-4-yl)-2-(3-fluorophenyl)-6,7-dihydropyrazolo[1,5-a]pyrazine-3,5(4H)-dicarboxamide] | – | 10 to 100 | – | –
CC(=O)N1CCC(NC(=O)N2CCn3nc(-c4cccc(F)c4)c(C(N)=O)c3C2)CC1 [Compound 97] | – | 10 to 100 | – | –
NC(=O)c1c(-c2cccc(F)c2)nn2c1CN(C(=O)NC1CCN(S(=O)(=O)C3CC3)CC1)CC2 [Compound 102, N^5-(1-(Cyclopropylsulfonyl)piperidin-4-yl)-2-(3-fluorophenyl)-6,7-dihydropyrazolo[1,5-a]pyrazine-3,5(4H)-dicarboxamide] | – | 10 to 100 | – | –
CC(C)(C)NC(=O)N1CCn2nc(-c3cc(F)cc(F)c3)c(C(N)=O)c2C1 [Compound 105, N^5-(tert-Butyl)-2-(3,5-difluorophenyl)-6,7-dihydropyrazolo[1,5-a] pyrazine-3,5(4H)-dicarboxamide] | – | 10 to 100 | – | –
COc1cc(F)cc(-c2nn3c(c2C(N)=O)CN(C(=O)NC(C)(C)C)CC3)c1 [Compound 137, N^5-(tert-Butyl)-2-(3-fluoro-5-methoxyphenyl)-6,7-dihydropyrazolo[1,5-a] pyrazine-3,5(4H)-dicarboxamide] | – | 10 to 100 | – | –
CSc1cccc(-c2nn3c(c2C(N)=O)CN(C(=O)NC(C)(C)C)CC3)c1 [Compound 150, N^5-(tert-Butyl)-2-(3-(methylthio)phenyl)-6,7-dihydropyrazolo[1,5-a] pyrazine-3,5(4H)-dicarboxamide] | – | 10 to 100 | – | –
CC(C)(C)NC(=O)N1Cc2c(C(N)=O)c(-c3ccc(F)c(Cl)c3)nn2CC12CC2 [Compound 350, N^5′-(tert-Butyl)-2′-(3-chloro-4-fluorophenyl)-4′H-spiro[cyclopropane-1,6′-pyrazolo[1,5-a]pyrazine]-3′,5′(7′H)-dicarboxamide] | – | 100 to 2000 | – | –
N#Cc1ccc(NC(=O)N2Cc3c(C(N)=O)c(-c4cccc(Cl)c4)nn3C(CF)C2)cc1 (stereo not shown) [Compound A4, 2-(3-Chlorophenyl)-N^5-(4-cyanophenyl)-7-(fluoromethyl)-6,7-dihydropyrazolo[1,5-a]pyrazine-3,5(4H)-dicarboxamide] | – | 0.01 to 10 | – | –

Second part, the compound after the results:

IC50 ([1]; read-out: CK1δ IC50 range) [nM] | IC50 ([2]; read-out: CK1ε IC50 range) [nM] | IC50 ([1]; read-out: CK1δ) [nM] | IC50 ([2]; read-out: CK1ε) [nM] | Compound
0.01 to 10 | 0.01 to 10 | – | – | 2-(3-Chloro-4-fluorophenyl)-N^5-(3,3-difluorocyclopentyl)-6,7-dihydropyrazolo[1,5-a]pyrazine-3,5(4H)-dicarboxamide [Compound 332]
0.01 to 10 | 0.01 to 10 | – | – | NC(=O)c1c(-c2cccc(Cl)c2)nn2c1CN(C(=O)NC1CC(COC(F)F)C1)CC2 (single isomer, unassigned) [Compound 244, 2-(3-Chlorophenyl)-N^5-(3-((difluoromethoxy)methyl)cyclobutyl)-6,7-dihydropyrazolo[1,5-a]pyrazine-3,5(4H)-dicarboxamide]
0.01 to 10 | 0.01 to 10 | – | – | NC(=O)c1c(-c2cccc(Cl)c2)nn2c1CN(C(=O)NC1CC(COC(F)F)C1)CC2 (single isomer, unassigned) [Compound 245, 2-(3-Chlorophenyl)-N^5-(3-((difluoromethoxy)methyl)cyclobutyl)-6,7-dihydropyrazolo[1,5-a]pyrazine-3,5(4H)-dicarboxamide]
0.01 to 10 | 0.01 to 10 | – | – | CC1CC(NC(=O)N2CCn3nc(-c4ccc(F)c(Cl)c4)c(C(N)=O)c3C2)C1 (single isomer, unassigned) [Compound 246, 2-(3-Chloro-4-fluorophenyl)-N^5-(3-methylcyclobutyl)-6,7-dihydropyrazolo[1,5-a]pyrazine-3,5(4H)-dicarboxamide]
0.01 to 10 | 0.01 to 10 | – | – | CC1CC(NC(=O)N2CCn3nc(-c4ccc(F)c(Cl)c4)c(C(N)=O)c3C2)C1 (single isomer, unassigned) [Compound 247, 2-(3-Chloro-4-fluorophenyl)-N^5-(3-methylcyclobutyl)-6,7-dihydropyrazolo[1,5-a]pyrazine-3,5(4H)-dicarboxamide]
0.01 to 10 | 0.01 to 10 | 1.5 | 0.4 | CC1CC(NC(=O)N2CCn3nc(-c4ccc(Cl)c(Cl)c4)c(C(N)=O)c3C2)C1 (single isomer, unassigned) [Compound 248, 2-(3,4-Dichlorophenyl)-N^5-(3-methylcyclobutyl)-6,7-dihydropyrazolo[1,5-a]pyrazine-3,5(4H)-dicarboxamide]
0.01 to 10 | 0.01 to 10 | – | – | CC1CC(NC(=O)N2CCn3nc(-c4ccc(Cl)c(Cl)c4)c(C(N)=O)c3C2)C1 (single isomer, unassigned) [Compound 249, 2-(3,4-Dichlorophenyl)-N^5-(3-methylcyclobutyl)-6,7-dihydropyrazolo[1,5-a]pyrazine-3,5(4H)-dicarboxamide]
0.01 to 10 | 0.01 to 10 | – | – | CC1CC(NC(=O)N2CCn3nc(-c4cccc(Cl)c4)c(C(N)=O)c3C2)C1 (single isomer, unassigned) [Compound 250, 2-(3-Chlorophenyl)-N^5-(3-methylcyclobutyl)-6,7-dihydropyrazolo[1,5-a]pyrazine-3,5(4H)-dicarboxamide]
0.01 to 10 | 0.01 to 10 | – | – | CC1CC(NC(=O)N2CCn3nc(-c4cccc(Cl)c4)c(C(N)=O)c3C2)C1 (single isomer, unassigned) [Compound 251, 2-(3-Chlorophenyl)-N^5-(3-methylcyclobutyl)-6,7-dihydropyrazolo[1,5-a]pyrazine-3,5(4H)-dicarboxamide]
0.01 to 10 | 0.01 to 10 | 0.5 | 0.7 | CC1(NC(=O)N2CCn3nc(-c4ccc(F)c(Cl)c4)c(C(N)=O)c3C2)CC(C(F)F)C1 (single isomer, unassigned) [Compound 258, 2-(3-Chloro-4-fluorophenyl)-N^5-(3-(difluoromethyl)-1-methylcyclobutyl)-6,7-dihydropyrazolo[1,5-a]pyrazine-3,5(4H)-dicarboxamide]
0.01 to 10 | 0.01 to 10 | – | – | CC1(NC(=O)N2CCn3nc(-c4ccc(F)c(Cl)c4)c(C(N)=O)c3C2)CC(C(F)F)C1 (single isomer, unassigned) [Compound 259, 2-(3-Chloro-4-fluorophenyl)-N^5-(3-(difluoromethyl)-1-methylcyclobutyl)-6,7-dihydropyrazolo[1,5-a]pyrazine-3,5(4H)-dicarboxamide]
0.01 to 10 | 0.01 to 10 | – | – | NC(=O)c1c(-c2ccc(F)c(Cl)c2)nn2c1CN(C(=O)NC1CC3(C1)CC3(F)F)CC2 (single isomer, unassigned) [Compound 320, 2-(3-Chloro-4-fluorophenyl)-N^5-(1,1-difluorospiro[2.3]hexan-5-yl)-6,7-dihydropyrazolo[1,5-a]pyrazine-3,5(4H)-dicarboxamide]
0.01 to 10 | 0.01 to 10 | – | – | NC(=O)c1c(-c2ccc(F)c(Cl)c2)nn2c1CN(C(=O)NC1CC3(C1)CC3(F)F)CC2 (single isomer, unassigned) [Compound 321, 2-(3-Chloro-4-fluorophenyl)-N^5-(1,1-difluorospiro[2.3]hexan-5-yl)-6,7-dihydropyrazolo[1,5-a]pyrazine-3,5(4H)-dicarboxamide]
